# Data reported in patent US6214345A, “Lysosomal enzyme-cleavable antitumor drug conjugates” (Bristol-Myers Squibb Co., priority 1993, dated 2001).
# Where a name gives a salt, the structure may show the parent alone.
# Tests used:
# [1] = system: HCT116 colon line; assay: In vitro cytotoxicity assay (3H-thymidine uptake), HCT116; assay type: cell-based, human; conditions: antigen-negative HCT116, 2 hours exposure
# Description: All dilutions were performed in quadruplicate.
# [2] = system: L2987 human lung carcinoma xenografts; assay: Antitumor activity against established L2987 human tumor xenografts (Test VI); assay type: in vivo, mice
# Description: The BR96-PEP-DOX conjugate (MR=4.41) was evaluated in vivo (Table 1) against L2987 human lung carcinoma xenografts. Therapy was initiated 14 days after tumor implant when the tumors were approximately 75 mm 3 in size.
# [3] = molecular target: T1, Bovin spleen cathepsin B (Bos taurus, UniProt P07688); assay: Cathepsin B unmasking of Z-Phe-Lys-PABC-DOX (Test III); assay type: biochemical, bovine; conditions: pH 5.0 acetate buffer, about 37° C., [Substrate]=40 μM, [Cathepsin B]=ca. 41 nM
# T1 construct: purchased Sigma; host or cells: bovine spleen
# [4] = Human plasma stability of Z-Phe-Lys-PABC-DOX (Test IV); assay type: in vitro ADME; conditions: freshly drawn human plasma
# Description: Aliquots (50 μl) were periodically removed and diluted with cold methanol (100 μl). The samples were centrifuged and the resulting liquid injected into the HPLC (conditions as above). Enough DOX was added to a separate sample of plasma to give a theoretical release of 1% from the substrate. This was successfully detected using the same methods.
# [5] = system: L2987 lung line; conditions: L2987, 2 hours exposure, 3H-thymidine uptake
# Description: (§1) L2987 is a lung adenocarcinoma line obtained from I. Hellstrom (Bristol-Myers Squibb, Seattle, Wash.). The HCT116 colorectal tumor line was obtained from M. Brattain (Baylor Inst., Tex.). A2780 is an ovarian carcinoma line obtained from K. Scanlon (National Cancer Institute).
# (§2) Monolayer cultures of human carcinoma cells were harvested using trypsin-EDTA (GIBCO, Grand Island, N.Y.), and the cells counted and resuspended to 1×10^5 /ml in RPMI-1640 containing 10% heat inactivated fetal calf serum (RPMI-10% FCS). Cells (0.1 ml/well) were added to each well of 96 well microtiter plates and incubated overnight at about 37° C. in a humidified atmosphere of 5% CO2. Media was removed from the plates and serial dilutions of DOX or MAb-DOX conjugates added to the walls. All dilutions were performed in quadruplicate. Cells were exposed to DOX or MAb-DOX conjugates for about 2 hours at about 37° C. in a humidified atmosphere of 5% CO2. Plates were then centrifuged (200×g, 5 min.), the drug or conjugate removed, and the cells washed 3× with RPMI-10% FCS. The cells were cultured in RPMI-10% FCS (37° C., 5% CO2) for an additional 48 hours. At this time the cells were pulsed for about 2 hours with 1.0 uCi/well of ^3 H-thymidine (New England Nuclear, Boston, Mass.).
# [6] = system: A2780 ovarian line; conditions: A2780, 2 hours exposure, 3H-thymidine uptake
# Description: as §1, §2
# [7] = molecular target: cathepsin B (Bos taurus, UniProt P07688)
# Description: Bovin spleen cathepsin B (Sigma, EC 3.4.22.1, MW ca. 40,000) (10 units) was dissolved in 1 ml pH 5.0 acetate buffer (25 mM acetate+1 mM EDTA), giving a solution roughly 13.7 M. 6 μl of the enzyme solution was incubated with 12 μl of an activating solution (30 mM dithiothreitol and 15 mM EDTA) for about 15 minutes at room temperature. To this was added 2 ml of pH 5.0 acetate buffer (25 mM acetate with 1 mM EDTA) which had been incubated at about 37° C., followed by 8 μl of a 10 mM solution of Z-Phe-Lys-PABC-DOX in methanol ([Substrate]=40 μM, [Cathepsin B]=ca. 41 nM). The mixture was incubated at about 37° C., and aliquots were periodically removed and injected into the HPLC (C-18 column; 80:20 methanol/pH 2.8 triethylammonium formate (50 mM) buffer; 1 ml/min.; 495 mn detection wavelength).
# [8] = 0.31 mg/kg DOX, 20 mg/kg BR96 per injection
# [9] = 0.63 mg/kg DOX, 39 mg/kg BR96 per injection
# [10] = 1.25 mg/kg DOX, 78 mg/kg BR96 per injection
# [11] = 2.5 mg/kg DOX, 156 mg/kg BR96 per injection
# [12] = 5 mg/kg DOX, 312 mg/kg BR96 per injection
# [13] = 10 mg/kg DOX, 625 mg/kg BR96 per injection
# [14] = 20 mg/kg DOX, 1250 mg/kg BR96 per injection
compound,measurement,setting,value
"COc1cccc2c1C(=O)c1c(O)c3c(c(O)c1C2=O)C[C@@](O)(C(=O)CO)C[C@@H]3O[C@H]1C[C@H](N)[C@H](O)[C@H](C)O1 [DOX, Doxorubicin, reference compound]",in vitro activity,[1],sensitive
same,% Tumor Regressions Complete,[2]; DOX 6 mg/kg/injection,0%
same,% Tumor Regressions Partial,[2]; DOX 6 mg/kg/injection,0%
same,Log Cell Kill,[2]; DOX 6 mg/kg/injection,1.5
same,% Tumor Regressions Complete,[2]; DOX 8 mg/kg/injection,10%
same,% Tumor Regressions Partial,[2]; DOX 8 mg/kg/injection,0%
same,Log Cell Kill,[2]; DOX 8 mg/kg/injection,2.4
"COc1cccc2c1C(=O)c1c(O)c3c(c(O)c1C2=O)C[C@@](O)(C(=O)CO)C[C@@H]3O[C@H]1C[C@H](NC(=O)OCc2ccc(NC(=O)[C@H](CCCCN)NC(=O)[C@H](Cc3ccccc3)NC(=O)OCc3ccccc3)cc2)[C@H](O)[C@H](C)O1 [Z-Phe-Lys-PABC-DOX, Z-Phe-Lys-PABC-DOX-HCl]",half-life of release of free DOX,[3],7 to 9 min
same,free DOX detected in plasma,[4]; over 7 hours,No free DOX was detected
same,half-life,[4]; no release over 7 hours,> 350 h
BR96-succinimidocaproyl-phenylalanine-lysine-p-aminovenzyl-carbamoyloxy-doxorubicin [BR96-DOX],in vitro potency compared with unconjugated DOX,[5],equivalent to that of unconjugated DOX
same,"in vitro potency, fold less potent than unconjugated DOX",[6],approximately 50 fold
same,in vitro activity,[1],not active
same,% Tumor Regressions Complete,[2]; [8],0%
same,% Tumor Regressions Partial,[2]; [8],0%
same,Log Cell Kill,[2]; [8],0.2
same,% Tumor Regressions Complete,[2]; [9],0%
same,% Tumor Regressions Partial,[2]; [9],0%
same,Log Cell Kill,[2]; [9],0.3
same,% Tumor Regressions Complete,[2]; [10],10%
same,% Tumor Regressions Partial,[2]; [10],10%
same,Log Cell Kill,[2]; [10],2.4
same,% Tumor Regressions Complete,[2]; [11],90%
same,% Tumor Regressions Partial,[2]; [11],10%
same,Log Cell Kill,[2]; [11],> 7
same,% Tumor Regressions Complete,[2]; [12],100%
same,% Tumor Regressions Partial,[2]; [12],0%
same,Log Cell Kill,[2]; [12],> 7
same,% Tumor Regressions Complete,[2]; [13],89%
same,% Tumor Regressions Partial,[2]; [13],11%
same,Log Cell Kill,[2]; [13],> 7
same,% Tumor Regressions Complete,[2]; [14],100%
same,% Tumor Regressions Partial,[2]; [14],0%
same,Log Cell Kill,[2]; [14],> 7
same,activity and tolerability in vivo,[2]; doses of 1.25-20 mg/kg equivalent DOX/injection,active and tolerated
same,activity compared with optimized DOX,[2]; doses of ≥2.5 mg/kg equivalent DOX/injection,significantly more active than optimized DOX
same,half-life of release of free DOX,"[7]; cathepsin B, pH 5.3, about 37° C., HPLC",about 3 hours
same,t1/2 of DOX release by cathepsin B,[7]; pH 5.3 (37° C.),3.0 h
